Tested on: Plasmodium falciparum strains Dd2, 3D7 and HB3
Experiment: Sensitivity of Plasmodium falciparum to fosmidomycin in combination with different compounds, semi-automatic test by [3H]-hypoxanthin incorporation into parasite DNA
Type: cell-based
Conditions: drug in combination with fosmidomycin, sum FIC <1 synergism, >1 antagonism, =1 addition
Procedure: The IC50-values of fosmidomycin and the respective combination partner were determined for the single compounds and in different ratios of mixture on microtitreplates. The results were defined as sum of fractional inhibitory concentration (sum fractional inhibitory concentration, FIC):
sum FIC=IC50 of fosmidomycin in mixture/IC50 of fosmidomycin alone+IC50 of the combination partners in mixture/IC50 of combination partner alone
Sum FIC-values <1 represent synergism, values >1 antargonism and values=1 addition.

SMILES	sum FIC (P. falciparum strain 3D7)	sum FIC (P. falciparum strain Dd2)	sum FIC (P. falciparum strain HB3)
CCCCN(CCCC)CC(O)c1cc(Cl)cc2c1-c1ccc(Cl)cc1/C2=C/c1ccc(Cl)cc1 (stereo not drawn) [lumefantrin]	1.21	1.20	1.08
CC[C@H]1OC(=O)[C@H](C)[C@@H](O[C@H]2C[C@@](C)(OC)[C@@H](O)[C@H](C)O2)[C@H](C)[C@@H](O[C@@H]2O[C@H](C)C[C@H](N(C)C)[C@H]2O)[C@](C)(O)C[C@@H](C)CN(C)[C@H](C)[C@@H](O)[C@]1(C)O [azithromycin]	0.74	0.86	0.85

Source: US20040235784A1, “Combination preparations of 3-n-formylhydroxylaminopropyl phosphonic acid derivatives or 3-n-acetylhydroxylaminopropyl phosphonic acid derivatives combined with specific pharmaceutical active agents” (priority 2000, published 2004)
